# Experimental data published in ChEMBL document CHEMBL6115010, “Targeting glioma with heteroaromatic alkaloids: A review of potential therapeutics” (Bioorg Med Chem, 2025).
# Legend:
# SF-295 [1] = assay: Cytotoxicity against human SF-295 cells assessed as reduction in cell growth incubated for 96 hrs by MTT assay; type: functional, cell-based; settings: SF-295, 96 h
# SF-295 [2] = assay: Cytotoxicity against human SF-295 cells; type: functional, cell-based
# U-87 MG [3] = assay: Cytotoxicity against human U-87 MG cells assessed as reduction in cell growth incubated for 48 hrs by MTT assay; type: functional, cell-based, U-87MG ATCC
# T98G [4] = assay: Cytotoxicity activity against human T98G cells assessed as reduction in cell growth measured for 48 hrs by MTS reagent based assay; type: functional
# T98G [5] = assay: Growth inhibition of human T98G cells measured after 72 hrs by MTT assay; type: functional
# [6] = Growth inhibition of human U373 MG cells measured after 72 hrs by MTT assay; type: functional, U-373MG ATCC
# Hs68 = assay: Growth inhibition of human Hs68 cells measured after 72 hrs by MTT assay; type: functional
# U-87 MG [7] = assay: Growth inhibition of human U-87 MG cells measured after 72 hrs by MTT assay; type: functional, U-87MG ATCC
# U-251 [8] = assay: Antiproliferative activity against human U-251MG cells assessed as reduction in cell viability incubated for 72 hrs by SRB assay; type: functional, cell-based; settings: U-251, 72 h
# [9] = Cytotoxicity against HEK293T cells assessed as reduction in cell viability incubated for 72 hrs by MTS assay; type: toxicity, cell-based, HEK-293T; settings: human
# CCF-STTG1 = assay: Cytotoxicity against human CCF-STTG1 cells assessed as reduction in cell growth incubated for 24 hrs by MTT assay; type: functional, cell-based; settings: CCF-STTG1, 24 h
# [10] = Cytotoxicity against human CHG-5 cells assessed as reduction in cell growth incubated for 24 hrs by MTT assay; type: functional, cell-based; settings: CHG-5, 24 h
# [11] = Cytotoxicity against human SHG-44 cells assessed as reduction in cell growth incubated for 24 hrs by MTT assay; type: functional, cell-based; settings: SHG-44, 24 h
# U-251 [12] = assay: Cytotoxicity against human U-251MG cells assessed as reduction in cell growth incubated for 24 hrs by MTT assay; type: functional, cell-based; settings: U-251, 24 h
# SF-268 [13] = assay: Cytotoxicity against human SF-268 cells assessed as reduction in cell viability incubated for 72 hrs by MTT assay; type: functional, cell-based; settings: SF-268, 72 h
# [14] = Cytotoxicity against human GSC-3 cells assessed as reduction in cell growth incubated for 72 hrs by MTS assay; type: functional, cell-based; settings: GSC-3, 72 h
# [15] = Cytotoxicity against human GSC-18 cells assessed as reduction in cell growth incubated for 72 hrs by MTS assay; type: functional, cell-based; settings: GSC18, 72 h
# [16] = Cytotoxicity against rat ASK cells assessed as reduction in cell growth by SRB assay; type: functional; settings: read-out: ED50 (the source's name)
# T98G [17] = assay: Antiproliferative activity against human T98G cells assessed as reduction in cell viability measured for 24 hrs by MTT assay; type: functional, cell-based
# U-87 MG [18] = assay: Antiproliferative activity against human U-87 MG cells assessed as reduction in cell viability incubated for 72 hrs by MTT assay; type: functional, cell-based, U-87MG ATCC
# U-251 [19] = assay: Antiproliferative activity against human U-251MG cells assessed as reduction in cell viability incubated for 72 hrs by MTT assay; type: functional, cell-based; settings: U-251, 72 h
# U-118-MG = assay: Antiproliferative activity against human U-118-MG cells assessed as reduction in cell viability incubated for 72 hrs by MTT assay; type: functional, cell-based
# T98G [20] = assay: Antiproliferative activity against human T98G cells assessed as reduction in cell viability by MTT assay; type: functional, cell-based
# LN-18 = assay: Antiproliferative activity against human LN-18 cells assessed as inhibition of cell growth incubated for 72 hrs MTS assay; type: functional, cell-based; settings: LN-18, 72 h
# C6 [21] = assay: Antiproliferative activity against rat C6 cells assessed as reduction in cell viability by MTT assay; type: functional, cell-based
# [22] = Antiproliferative activity against human SHG-44 cells assessed as reduction in cell viability by MTT assay; type: functional, cell-based
# LN-229 = assay: Antiproliferative activity against human LN-229 cells assessed as reduction in cell viability by MTT assay; type: functional, cell-based
# C6 [23] = assay: Antiproliferative activity against rat C6 cells assessed as reduction in cell growth at 10 uM incubated for 24 hrs by MTT assay relative to control; type: functional; parameters: scale not given: the % may be the effect or the level left
# U-87 MG [24] = assay: Cytotoxicity against human U-87 MG cells assessed as reduction in cell viability incubated for 72 hrs by neutral red uptake assay; type: functional, cell-based, U-87MG ATCC
# U-87 MG [25] = assay: Cytotoxicity against human U-87 MG cells assessed as reduction in cell viability in presence of Jerantinine B incubated for 72 hrs by neutral red uptake assay; type: functional, cell-based, U-87MG ATCC
# U-87 MG [26] = assay: Antiproliferative activity against human U-87-MG cells; type: functional, cell-based, U-87MG ATCC
# U-251 [27] = assay: Cytotoxicity against human U-251MG cells assessed as reduction in cell growth; type: functional, cell-based
# U-87 MG [28] = assay: Cytotoxicity against human U-87 MG cells by resazurin dye based assay; type: functional, cell-based, U-87MG ATCC
# [29] = Cytotoxicity against human U87MG.deltaEGFR cells by resazurin dye based assay; type: functional, cell-based
# U-251 [30] = assay: Induction of apoptosis in human U-251MG cells assessed as increase in PARP cleavage at 12.5 to 100 uM incubated for 24 hrs by Western blot analysis; type: functional; settings: dose 12.5-100 µM
# H4 = assay: Antiproliferative activity against human H4 cells assessed as reduction in cell viability incubated for 72 hrs by Presto-Blue cell viability assay; type: functional, cell-based; settings: H4, 72 h
# U-87 MG [31] = assay: Antiproliferative activity against human U-87 MG cells assessed as reduction in cell viability incubated for 72 hrs by Presto-Blue cell viability assay; type: functional, cell-based, U-87MG ATCC
# U-87 MG [32] = assay: Antitumor activity against human U-87 MG cells xenografted in mouse model assessed as reduction in tumor growth at 15 mg/kg, ip administered once daily for 5 days relative to control; type: functional, U-87MG ATCC; parameters: scale not given: the % may be the effect or the level left; settings: time 5 day
# U-251 [33] = assay: Growth inhibition of human U-251 cells measured after 48 hrs by sulforhodamine B assay; type: functional
# HaCaT = assay: Growth inhibition of human HaCaT cells measured after 48 hrs by sulforhodamine B assay; type: functional
# SF-268 [34] = assay: Cytotoxicity against human SF-268 cells assessed as reduction in cell viability incubated for 4 days by MTT assay; type: functional; settings: SF-268, 96 h, time 4 day
# RPMI 8402 = assay: Cytotoxicity against human RPMI 8402 cells assessed as reduction in cell viability incubated for 4 days by MTT assay; type: functional, cell-based; settings: RPMI 8402, 96 h
# SF-268 [35] = assay: Cytotoxicity against human SF-268 cells; type: functional; settings: read-out: ED50 (the source's name)
# U-87 MG [36] = assay: Antiproliferative activity against human U-87 MG cells assessed as reduction in cell viability incubated for 72 hrs by WST-8 reagent based assay; type: functional, U-87MG ATCC
# T98G [37] = assay: Antiproliferative activity against human T98G cells assessed as reduction in cell viability incubated for 72 hrs by WST-8 reagent based assay; type: functional
# [38] = Inhibition of colony formation in human U-251MG cells assessed as reduction in number of cell clone measured after 14 days by crystal violet staining based microscopic analysis; type: functional; settings: 336 h
# T98G [39] = assay: Inhibition of colony formation in human T98G cells assessed as reduction in number of cell clone measured after 14 days by crystal violet staining based microscopic analysis; type: functional; settings: 336 h
# T98G [40] = assay: Anticancer activity against human T98G cells assessed as reduction in cell viability; type: functional, cell-based
smiles,measurement,setting,value
O=C1c2ccc(Br)cc2-[n+]2ccc3c([nH]c4ccccc43)c21,IC50,SF-295 [1],5.6 µM
same,IC50,SF-295 [2],3.9 µM
COc1ncc(O)c2c(O)cccc12,IC50,U-87 MG [3],2.14 µM
C=CC(C)(C)n1cc(Cc2cn(C(C)(C)C=C)c3ccccc23)c2ccccc21,IC50,T98G [4],18 µg/mL
CO[C@@H]1C=C[C@]23c4cc5c(cc4[C@@H](O)N(C[C@H]2O)[C@@H]3C1)OCO5,GI50,T98G [5],14 µM
same,GI50,[6],7 µM
same,GI50,Hs68,4 µM
same,GI50,U-87 MG [7],6 µM
CC1=N[C@H](C(=O)O)CC2c3[nH]ccc3NC12 (some centres not stated),IC50,U-251 [8],36.3 µM
COc1cc2c(cc1OC)[C@H](Cc1cc(O)c(OC)c(Oc3ccc(C=O)cc3)c1)N(C)CC2,IC50 at 72 h,[9],20 µg/mL
C=CC(C)(C)[C@@]12C[C@H]3C(=O)N[C@@H](Cc4ccccc4)C(=O)N3[C@@H]1N(C(C)=O)c1ccccc12,IC50,T98G [4],20 µg/mL
COC(=O)N1CCc2cc3c(c4c2[C@@H]1Cc1ccc(OC)c(OC)c1-4)OCO3,IC50,CCF-STTG1,9.2 µM
same,IC50,[10],9.7 µM
same,IC50,[11],11.3 µM
same,IC50,U-251 [12],11.3 µM
CC[C@H](/C=C(C)/C=C/C(=O)c1c(O)c(-c2ccc(O)cc2)c[nH]c1=O)CO,IC50,SF-268 [13],31.1 µM
COC(=O)N1CCc2cc(O)c(OC)c3c2[C@@H]1Cc1ccc(OC)c(O)c1-3,IC50,CCF-STTG1,10.4 µM
same,IC50,[10],12.2 µM
same,IC50,[11],11.9 µM
same,IC50,U-251 [12],11.9 µM
COc1cc2c(cc1Oc1c(C=O)ccc(OC)c1OC)cc1c3c(c(OC)c(OC)c(OC)c32)CCN1C,IC50,[14],4.54 µg/mL
same,IC50,[15],5.37 µg/mL
same,EC50,[16],2.11 µg/mL
CC1=NC(C(=O)O)Cc2c1[nH]c1cc([C@H](c3c[nH]c4ccccc34)[C@@H](O)CO)[nH]c21 (some centres not stated),IC50,U-251 [8],26.1 µM
COc1cc2c(cc1Oc1c(C=O)ccc(OC)c1OC)C(=O)c1nccc3c(OC)c(OC)c(OC)c-2c13,IC50,[14],2.36 µg/mL
same,IC50,[15],2.55 µg/mL
same,EC50,[16],10.2 µg/mL
Oc1cc2cccc(O)c2cn1,IC50,U-87 MG [3],3.46 µM
O[C@@H]1CN2Cc3cc4c(cc3C13C=C[C@H](O)C[C@@H]23)OCO4 (some centres not stated),GI50,T98G [5],9 µM
same,GI50,[6],38 µM
same,GI50,Hs68,11 µM
same,GI50,U-87 MG [7],9 µM
COc1ccc2cc3[n+](cc2c1OC)CCc1cc2c(cc1-3)OCO2 [BERBERINE],IC50,T98G [17],134 µg/mL
same,IC50,U-87 MG [18],21.8 µM
same,IC50,U-251 [19],9.79 µM
same,IC50,U-118-MG,35.5 µM
same,IC50,T98G [20],120 µM
same,IC50,LN-18,89.7 µM
same,IC50,C6 [21],50.9 µM
same,IC50,[22],0.2748 µg/mL
same,IC50,LN-229,0.0813 µg/mL
same,Activity,C6 [23],88%
CC(C)=CCC/C(C)=C/CC/C(C)=C/CC[C@]1(C)CCc2cc(O)cc(C)c2O1 [DELTA-TOCOTRIENOL],IC50,U-87 MG [24],3.12 µg/mL
same,IC50,U-87 MG [25],1.83 µg/mL
COc1cc2c(cc1OC)-c1c3c(cc4c1[C@H](C2)N(C)CC4)OCO3 [DICENTRINE],IC50,U-87 MG [26],4.73 µM
COc1cccc2c1C(=O)c1c(O)c3c(c(O)c1C2=O)C[C@@](O)(C(=O)CO)C[C@@H]3O[C@H]1C[C@H](N)[C@H](O)[C@H](C)O1 [DOXORUBICIN],IC50,U-251 [27],0.237 µM
same,IC50,SF-268 [13],0.7 µM
same,IC50,U-87 MG [28],1.06 µM
same,IC50,[29],6.11 µM
COc1ccc2c(c1)[nH]c1c(C)nccc12 [HARMINE],Activity,U-251 [30],346%
same,IC50,H4,4.9 µM
same,IC50,U-87 MG [31],45.3 µM
same,Activity,U-87 MG [32],16.5%
COc1cc2c(cc1OC)-c1cc3ccc(OC)c(OC)c3c[n+]1CC2 [PALMITINE],GI50,U-251 [33],16.2 µM
same,GI50,HaCaT,122 µM
same,GI50,SF-268 [34],3 µg/mL
same,IC50,RPMI 8402,10 µg/mL
O=C1N[C@H]2[C@H](O)[C@H](O)[C@@H](O)[C@H](O)[C@@H]2c2cc3c(c(O)c21)OCO3 [PANCRATISTATIN],EC50,SF-268 [35],0.017 µg/mL
Cn1nnc2c(C(N)=O)ncn2c1=O [TEMOZOLOMIDE],IC50,U-87 MG [18],135 µM
same,IC50,U-251 [19],> 320 µM
same,IC50,U-118-MG,> 320 µM
same,IC50 at 72 h,[9],> 50 µg/mL
same,EC50,U-87 MG [36],42 µM
same,EC50,T98G [37],390 µM
same,EC50,[38],23 µM
same,EC50,T98G [39],430 µM
same,EC50,T98G [40],150 µM
